Results reported in patent publication US20230398130A1, “METHODS AND COMPOSITIONS FOR DIFFERENTIATING STEM CELLS” (Massachusetts Institute of Technology, priority 2020, published 2023).
Structures can show the parent of a compound that is named as a salt.

Legend:
ISC-enriched organoids [1] = test: Secondary (validation) screen, 384-well 2.5-D, ENR+CD 6 days, n=8 wells, vs ENR+CD+DMSO control: ATP (CTG); type: cell-based, murine
Description: (§1) Drugs were tested at a narrowed dose range around each treatment's identified optimal dose from the primary screen (4× below, 2× above and below).
(§2) High-throughput screening.
(§3) Secondary lysozyme secretion assay screen. Confirmatory secondary screening with primary hits was performed using the above 384-well plate method. The screen was conducted with 4-plate replicates with a base media of ENR+CD. Media was supplemented with compound at day 0 and day 3 (n=8 well replicates per dose) at four different doses: two-fold above, two-fold below, and four-fold below the optimal final dose for each respective treatment. Additionally, each plate carried a large number of ENR+DMSO or ENR+CD+DMSO (vehicle) control wells (n=100 for ATP, and n=25 for LYZ.NS and LYZ.S) for robust normalization. ATP, non-stimulated lysozyme activity and CCh-stimulated lysozyme activity was again measured and the collected data was again processed in a custom R-script, per primary screen with slight modification. Values were log10 transformed, and a plate-wise FC was calculated for each well based on the median value of ENR+CD+DMSO (vehicle) control wells to normalize plate to plate variability.

ISC-enriched organoids [2] = test: Primary screen, 384-well 2.5-D organoid differentiation (ENR+CD, 6 days, Target Selective Inhibitor Library, vs whole-plate median): ATP (CellTiter-Glo 3D, CTG); conditions: primary screen
ISC-enriched organoids [3] = test: Secondary (validation) screen, 384-well 2.5-D, ENR+CD 6 days, n=8 wells, vs ENR+CD+DMSO control: basal lysozyme secretion (LYZ.NS); type: cell-based, murine
Description: as §1, §2, §3

ISC-enriched organoids [4] = test: Secondary (validation) screen, 384-well 2.5-D, ENR+CD 6 days, n=8 wells, vs ENR+CD+DMSO control: carbachol-induced lysozyme secretion (LYZ.S); type: cell-based, murine
Description: as §1, §2, §3

Structure (SMILES): COc1ccc(C2CNC(=O)C2)cc1OC1CCCC1 (stereo not drawn) [Rolipram]
- Z.CTG (ISC-enriched organoids [1]; Dose 0.50 uM): 0.477
- repSSMD.CTG (ISC-enriched organoids [1]; Dose 0.50 uM): 0.368
- Z.CTG (ISC-enriched organoids [1]; Dose 1.00 uM): 1.198
- repSSMD.CTG (ISC-enriched organoids [1]; Dose 1.00 uM): 0.832
- Z.CTG (ISC-enriched organoids [1]; Dose 4.00 uM): 0.583
- repSSMD.CTG (ISC-enriched organoids [1]; Dose 4.00 uM): 0.447
- Z.CTG (ISC-enriched organoids [1]; dose 2.00 uM): 1.819
- repSSMD.CTG (ISC-enriched organoids [1]; dose 2.00 uM): 1.420
- Z.CTG (standard z score) (ISC-enriched organoids [2]; Dose 0.08 uM): 0.850
- Z.CTG (standard z score) (ISC-enriched organoids [2]; Dose 0.40 uM): 0.370
- Z.CTG (standard z score) (ISC-enriched organoids [2]; Dose 2.00 uM): 0.945
- Z.CTG (standard z score) (ISC-enriched organoids [2]; Dose 10.00 uM): 0.714
- Z.LYZ.NS (ISC-enriched organoids [3]; Dose 0.50 uM): −0.342
- repSSMD.LYZ.NS (ISC-enriched organoids [3]; Dose 0.50 uM): −0.478
- Z.LYZ.NS (ISC-enriched organoids [3]; Dose 1.00 uM): 1.213
- repSSMD.LYZ.NS (ISC-enriched organoids [3]; Dose 1.00 uM): 1.715
- Z.LYZ.NS (ISC-enriched organoids [3]; Dose 4.00 uM): −0.407
- repSSMD.LYZ.NS (ISC-enriched organoids [3]; Dose 4.00 uM): −0.543
- Z.LYZ.NS (ISC-enriched organoids [3]; dose 2.00 uM): 0.793
- repSSMD.LYZ.NS (ISC-enriched organoids [3]; dose 2.00 uM): 0.950
- Z.LYZ.S (ISC-enriched organoids [4]; Dose 0.50 uM): −0.631
- repSSMD.LYZ.S (ISC-enriched organoids [4]; Dose 0.50 uM): −0.936
- Z.LYZ.S (ISC-enriched organoids [4]; Dose 1.00 uM): 0.801
- repSSMD.LYZ.S (ISC-enriched organoids [4]; Dose 1.00 uM): 1.107
- Z.LYZ.S (ISC-enriched organoids [4]; Dose 4.00 uM): −0.543
- repSSMD.LYZ.S (ISC-enriched organoids [4]; Dose 4.00 uM): −0.736
- Z.LYZ.S (ISC-enriched organoids [4]; dose 2.00 uM): 0.227
- repSSMD.LYZ.S (ISC-enriched organoids [4]; dose 2.00 uM): 0.169

Structure (SMILES): N#CC[C@H](C1CCCC1)n1cc(-c2ncnc3[nH]ccc23)cn1 [Ruxolitinib (INCB018424), Ruxolitinib]
- Z.CTG (ISC-enriched organoids [1]; Dose 2.50 uM): −0.128
- repSSMD.CTG (ISC-enriched organoids [1]; Dose 2.50 uM): −0.090
- Z.CTG (ISC-enriched organoids [1]; Dose 5.00 uM): −2.016
- repSSMD.CTG (ISC-enriched organoids [1]; Dose 5.00 uM): −1.168
- Z.CTG (ISC-enriched organoids [1]; Dose 20.00 uM): 1.496
- repSSMD.CTG (ISC-enriched organoids [1]; Dose 20.00 uM): 0.952
- Z.CTG (ISC-enriched organoids [1]; dose 10.00 uM): −1.380
- repSSMD.CTG (ISC-enriched organoids [1]; dose 10.00 uM): −1.030
- Z.CTG (standard z score) (ISC-enriched organoids [2]; Dose 0.08 uM): 1.093
- Z.CTG (standard z score) (ISC-enriched organoids [2]; Dose 0.40 uM): 0.867
- Z.CTG (standard z score) (ISC-enriched organoids [2]; Dose 2.00 uM): 1.062
- Z.CTG (standard z score) (ISC-enriched organoids [2]; Dose 10.00 uM): 1.140
- Z.LYZ.NS (ISC-enriched organoids [3]; Dose 2.50 uM): −1.251
- repSSMD.LYZ.NS (ISC-enriched organoids [3]; Dose 2.50 uM): −1.701
- Z.LYZ.NS (ISC-enriched organoids [3]; Dose 5.00 uM): −1.098
- repSSMD.LYZ.NS (ISC-enriched organoids [3]; Dose 5.00 uM): −1.569
- Z.LYZ.NS (ISC-enriched organoids [3]; Dose 20.00 uM): 0.522
- repSSMD.LYZ.NS (ISC-enriched organoids [3]; Dose 20.00 uM): 0.930
- Z.LYZ.NS (ISC-enriched organoids [3]; dose 10.00 uM): −0.671
- repSSMD.LYZ.NS (ISC-enriched organoids [3]; dose 10.00 uM): −1.103
- Z.LYZ.S (ISC-enriched organoids [4]; Dose 2.50 uM): −1.400
- repSSMD.LYZ.S (ISC-enriched organoids [4]; Dose 2.50 uM): −1.806
- Z.LYZ.S (ISC-enriched organoids [4]; Dose 5.00 uM): −1.667
- repSSMD.LYZ.S (ISC-enriched organoids [4]; Dose 5.00 uM): −2.281
- Z.LYZ.S (ISC-enriched organoids [4]; Dose 20.00 uM): 0.208
- repSSMD.LYZ.S (ISC-enriched organoids [4]; Dose 20.00 uM): 0.382
- Z.LYZ.S (ISC-enriched organoids [4]; dose 10.00 uM): −1.289
- repSSMD.LYZ.S (ISC-enriched organoids [4]; dose 10.00 uM): −2.212

Structure (SMILES): C[C@H](NCc1ccc(OCc2cccc(F)c2)cc1)C(N)=O [Safinamide Mesylate]
- Z.CTG (ISC-enriched organoids [1]; Dose 0.50 uM): −0.127
- repSSMD.CTG (ISC-enriched organoids [1]; Dose 0.50 uM): −0.118
- Z.CTG (ISC-enriched organoids [1]; Dose 1.00 uM): −0.743
- repSSMD.CTG (ISC-enriched organoids [1]; Dose 1.00 uM): −0.547
- Z.CTG (ISC-enriched organoids [1]; Dose 4.00 uM): −0.022
- repSSMD.CTG (ISC-enriched organoids [1]; Dose 4.00 uM): −0.013
- Z.CTG (ISC-enriched organoids [1]; dose 2.00 uM): −0.098
- repSSMD.CTG (ISC-enriched organoids [1]; dose 2.00 uM): −0.060
- Z.CTG (standard z score) (ISC-enriched organoids [2]; Dose 0.08 uM): 0.633
- Z.CTG (standard z score) (ISC-enriched organoids [2]; Dose 0.40 uM): 0.575
- Z.CTG (standard z score) (ISC-enriched organoids [2]; Dose 2.00 uM): 0.627
- Z.CTG (standard z score) (ISC-enriched organoids [2]; Dose 10.00 uM): 0.883
- Z.LYZ.NS (ISC-enriched organoids [3]; Dose 0.50 uM): −1.244
- repSSMD.LYZ.NS (ISC-enriched organoids [3]; Dose 0.50 uM): −1.484
- Z.LYZ.NS (ISC-enriched organoids [3]; Dose 1.00 uM): −1.847
- repSSMD.LYZ.NS (ISC-enriched organoids [3]; Dose 1.00 uM): −2.985
- Z.LYZ.NS (ISC-enriched organoids [3]; Dose 4.00 uM): −0.272
- repSSMD.LYZ.NS (ISC-enriched organoids [3]; Dose 4.00 uM): −0.431
- Z.LYZ.NS (ISC-enriched organoids [3]; dose 2.00 uM): −0.368
- repSSMD.LYZ.NS (ISC-enriched organoids [3]; dose 2.00 uM): −0.556
- Z.LYZ.S (ISC-enriched organoids [4]; Dose 0.50 uM): −1.637
- repSSMD.LYZ.S (ISC-enriched organoids [4]; Dose 0.50 uM): −2.413
- Z.LYZ.S (ISC-enriched organoids [4]; Dose 1.00 uM): −2.259
- repSSMD.LYZ.S (ISC-enriched organoids [4]; Dose 1.00 uM): −3.571
- Z.LYZ.S (ISC-enriched organoids [4]; Dose 4.00 uM): −0.658
- repSSMD.LYZ.S (ISC-enriched organoids [4]; Dose 4.00 uM): −0.942
- Z.LYZ.S (ISC-enriched organoids [4]; dose 2.00 uM): −0.757
- repSSMD.LYZ.S (ISC-enriched organoids [4]; dose 2.00 uM): −1.243

Structure (SMILES): CCc1c(C(=O)C(N)=O)c2c(OCC(=O)O)cccc2n1Cc1ccccc1 [Varespladib (LY315920), Varespladib]
- Z.CTG (ISC-enriched organoids [1]; Dose 0.02 uM): 0.244
- repSSMD.CTG (ISC-enriched organoids [1]; Dose 0.02 uM): 0.187
- Z.CTG (ISC-enriched organoids [1]; Dose 0.04 uM): 1.019
- repSSMD.CTG (ISC-enriched organoids [1]; Dose 0.04 uM): 0.518
- Z.CTG (ISC-enriched organoids [1]; dose 0.08 uM): 1.862
- repSSMD.CTG (ISC-enriched organoids [1]; dose 0.08 uM): 1.114
- Z.LYZ.NS (ISC-enriched organoids [3]; Dose 0.02 uM): −0.723
- repSSMD.LYZ.NS (ISC-enriched organoids [3]; Dose 0.02 uM): −0.763
- Z.LYZ.NS (ISC-enriched organoids [3]; Dose 0.04 uM): 0.123
- repSSMD.LYZ.NS (ISC-enriched organoids [3]; Dose 0.04 uM): 0.213
- Z.LYZ.NS (ISC-enriched organoids [3]; dose 0.08 uM): 0.718
- repSSMD.LYZ.NS (ISC-enriched organoids [3]; dose 0.08 uM): 1.251
- Z.LYZ.S (ISC-enriched organoids [4]; Dose 0.02 uM): −1.057
- repSSMD.LYZ.S (ISC-enriched organoids [4]; Dose 0.02 uM): −1.652
- Z.LYZ.S (ISC-enriched organoids [4]; Dose 0.04 uM): −0.339
- repSSMD.LYZ.S (ISC-enriched organoids [4]; Dose 0.04 uM): −0.641
- Z.LYZ.S (ISC-enriched organoids [4]; dose 0.08 uM): 0.497
- repSSMD.LYZ.S (ISC-enriched organoids [4]; dose 0.08 uM): 0.838
